Reference: the supplement of paper PMC11061612

Tests used:
Assay in all cases: combination Emax (second highest fraction inhibited in the dose matrix, 72 h); higher = more inhibition; extreme values may be limits of the assay
[1] = tested on: BFTC-905 (Bladder Carcinoma)
Outline: (§1)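 Bliss excess equals the observed combination effect minus the expected value EA + EB − EA·EB, where EA and EB are the effects of each agent alone. Combination Emax is the second-highest inhibition within the matrix. Inhibition was scaled from CellTiter-Glo 2.0 luminescence, with 0 set by vehicle wells and 1 by blank wells, after 72 hours of two-drug dosing of cells plated in 1536-well plates.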

[2] = tested on: TC-71 (Ewing's Sarcoma)
Outline: as §1

[3] = tested on: MOLT-16 (T-Lymphoblastic Leukemia)
Outline: as §1

[4] = tested on: NCI-H2818 (Mesothelioma)
Outline: as §1

[5] = tested on: EVSA-T (Breast Carcinoma)
Outline: as §1

[6] = tested on: COLO-678 (Colorectal Carcinoma)
Outline: as §1

[7] = tested on: P12-ICHIKAWA (T-Lymphoblastic Leukemia)
Outline: as §1

[8] = tested on: DND-41 (T-Lymphoblastic Leukemia)
Outline: as §1

[9] = tested on: ES1 (Ewing's Sarcoma)
Outline: as §1

[10] = tested on: MEL-JUSO (Melanoma)
Outline: as §1

[11] = tested on: U251 (Low Grade Glioma)
Outline: as §1

[12] = tested on: WIL2-NS (Non-Cancerous)
Outline: as §1

[13] = tested on: L-540 (Hodgkin's Lymphoma)
Outline: as §1

[14] = tested on: SW1417 (Colorectal Carcinoma)
Outline: as §1

[15] = tested on: KYSE-180 (Esophageal Squamous Cell Carcinoma)
Outline: as §1

[16] = tested on: KCL-22 (Chronic Myelogenous Leukemia)
Outline: as §1

[17] = tested on: LN-18 (Glioblastoma)
Outline: as §1

[18] = tested on: PANC-08-13 (Pancreatic Carcinoma)
Outline: as §1

[19] = tested on: TOV-112D (Ovarian Carcinoma)
Outline: as §1

[20] = tested on: MFM-223 (Breast Carcinoma)
Outline: as §1

Structure (SMILES)	combination Emax [1]	combination Emax [2]	combination Emax [3]	combination Emax [4]	combination Emax [5]	combination Emax [6]	combination Emax [7]	combination Emax [8]	combination Emax [9]	combination Emax [10]	combination Emax [11]	combination Emax [12]	combination Emax [13]	combination Emax [14]	combination Emax [15]	combination Emax [16]	combination Emax [17]	combination Emax [18]	combination Emax [19]	combination Emax [20]
CN(CCO)CC[C@H](CSc1ccccc1)Nc1ccc(S(=O)(=O)NC(=O)c2ccc(N3CCC([C@@H](O)c4ccccc4-c4ccc(Cl)cc4)CC3)cc2)cc1S(=O)(=O)C(F)(F)F [AZD4320] + C[C@@H](Nc1cc(F)cc(F)c1)c1cc(C(=O)N(C)C)cc2c(=O)cc(N3CCOCC3)oc12 [AZD8186] (first compound max 1 µM, 7x7, partner max 3 µM)	0.851	1	1	0.365	0.885	0.344	1	1	0.725	0.428	0.635	0.652	0.668	0.707	0.177	0.33	0.555	0.481	0.205	
COc1nnc2ccc(N3CCC(c4ccc(OCCN5CCN(C)C(=O)[C@H]5C)cc4)CC3)nn12 [AZD5153] + CN(CC[C@H](CSC1=CC=CC=C1)NC2=C(C=C(C=C2)S(=O)(=O)NC(=O)C3=CC=C(C=C3)N4CCC(CC4)[C@H](C5=CC=CC=C5C6=CC=C(C=C6)Cl)O)S(=O)(=O)C(F)(F)F)CCO [AZD4320] (first compound max 1 µM, 7x7, partner max 1 µM)		0.814	1		0.938	0.459	1			0.3	0.505				0.326	0.963	0.605	0.876	0.664	0.544
C=CCn1c(=O)c2cnc(Nc3ccc(N4CCN(C)CC4)cc3)nc2n1-c1cccc(C(C)(C)O)n1 [AZD1775] + O=C(c1cc(Cc2n[nH]c(=O)c3ccccc23)ccc1F)N1CCN(C(=O)C2CC2)CC1 [Olaparib] (first compound max 1 µM, partner max 10 µM)	0.55	0.583	1	0.415	0.289	0.205		0.878	0.838	0.401	0.442	0.931	0.946	0.564	0.774	0.882	0.217	0.329	0.427	0.56
CN(CCO)CC[C@H](CSc1ccccc1)Nc1ccc(S(=O)(=O)NC(=O)c2ccc(N3CCC([C@@H](O)c4ccccc4-c4ccc(Cl)cc4)CC3)cc2)cc1S(=O)(=O)C(F)(F)F [AZD4320] + Cn1cnc2c(F)c(Nc3ccc(Br)cc3Cl)c(C(=O)NOCCO)cc21 [Selumetinib] (first compound max 1 µM, 7x7, partner max 3 µM)	0.825	0.985	1	0.31	0.506	0.604	1	1	0.786	0.432	0.651	0.633	0.716	0.935	0.19	0.557	0.329	0.528	0.248	
COc1cccc(OCCCN)c1-c1cc(Nc2cnc(C#N)cn2)n[nH]1 [Prexasertib] + O=C(c1cc(Cc2n[nH]c(=O)c3ccccc23)ccc1F)N1CCN(C(=O)C2CC2)CC1 [Olaparib] (first compound max 1 µM, 7x7, partner max 10 µM)	0.848	0.987	1	0.285	0.433	0.169		0.85	1	0.686	0.733	1	0.975	0.614	0.983	0.953	0.807	0.536	0.796	0.703
CN(C)CCCOc1ccc(-c2ccc3ncc4c(c3c2)n(C2CCOCC2)c(=O)n4C)cn1 [AZD0156] + CCN(CCO)CCCOc1ccc2c(Nc3cc(CC(=O)Nc4cccc(F)c4)[nH]n3)ncnc2c1 [AZD2811] (first compound max 1 µM, 7x7, partner max 1 µM)	0.428	0.837	1	0.16	0.269	0.144		0.206	0.69	0.16	0.179	0.201	0.366	0.104	0.0693	0.333	0.33	0.0865	0.35	0.168
Cc1cc2ncnn2cc1Nc1ncc2c(n1)n(C1CCOCC1)c(=O)n2C [AZD7648] + O=C(c1cc(Cc2n[nH]c(=O)c3ccccc23)ccc1F)N1CCN(C(=O)C2CC2)CC1 [Olaparib] (first compound max 10 µM, 7x7, partner max 10 µM)	0.178	0.6	0.633	0.328	0.253	0.132		0.26	0.686	0.104	0.185	0.461	0.396	0.165	0.0923	0.25	0.132	0.102	0.353	0.172
